Results reported in ChEMBL document CHEMBL5058648, “Data for DCP probe SAFit2” (2022).
Blank lines part the entries; values can stand above or below the compound they belong to.

Legend:
[1] = biological target: D(4) dopamine receptor (Homo sapiens) (UniProt P21917); conditions: Compound concentration 10.0 uM
[2] = biological target: Muscarinic acetylcholine receptor M5 (Homo sapiens) (UniProt P08912); conditions: Compound concentration 10.0 uM
[3] = biological target: Sodium-dependent serotonin transporter (Homo sapiens) (UniProt P31645); conditions: Compound concentration 10.0 uM
[4] = biological target: Alpha-2C adrenergic receptor (Homo sapiens) (UniProt P18825); conditions: Compound concentration 10.0 uM
Chain of Alpha-2C adrenergic receptor (Homo sapiens) (P18825 whole entry): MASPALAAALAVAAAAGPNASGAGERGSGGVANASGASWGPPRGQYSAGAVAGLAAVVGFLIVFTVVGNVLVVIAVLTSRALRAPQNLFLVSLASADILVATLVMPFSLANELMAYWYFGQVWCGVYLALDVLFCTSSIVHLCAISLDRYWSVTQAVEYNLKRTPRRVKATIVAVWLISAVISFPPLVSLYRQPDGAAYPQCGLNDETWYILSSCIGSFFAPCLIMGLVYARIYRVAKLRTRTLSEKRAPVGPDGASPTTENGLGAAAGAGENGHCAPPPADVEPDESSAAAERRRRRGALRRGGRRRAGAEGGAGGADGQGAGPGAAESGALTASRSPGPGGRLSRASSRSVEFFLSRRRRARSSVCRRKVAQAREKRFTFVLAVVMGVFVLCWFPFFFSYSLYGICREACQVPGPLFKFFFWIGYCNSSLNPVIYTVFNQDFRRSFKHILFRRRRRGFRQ

[5] = biological target: 5-hydroxytryptamine receptor 2A (Homo sapiens) (UniProt P28223); conditions: Compound concentration 10.0 uM
[6] = biological target: Histamine H3 receptor (Homo sapiens) (UniProt Q9Y5N1); conditions: Compound concentration 10.0 uM
[7] = biological target: Alpha-2B adrenergic receptor (Homo sapiens) (UniProt P18089); conditions: Compound concentration 10.0 uM
[8] = biological target: T1, Sigma intracellular receptor 2 (Homo sapiens, UniProt Q5BJF2); test: GPCRScan assay: inhibition of Sigma 2; parameters: radioligand conc. used [nm] 5.0, parental cells HEKT
T1 sequence (Q5BJF2 whole entry): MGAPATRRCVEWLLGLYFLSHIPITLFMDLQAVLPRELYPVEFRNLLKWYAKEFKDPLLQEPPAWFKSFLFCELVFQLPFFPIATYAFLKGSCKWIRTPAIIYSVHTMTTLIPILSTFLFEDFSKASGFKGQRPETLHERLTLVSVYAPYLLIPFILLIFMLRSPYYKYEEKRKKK

[9] = biological target: Alpha-2A adrenergic receptor (Homo sapiens) (UniProt P08913); conditions: Compound concentration 10.0 uM
[10] = biological target: T2, D(2) dopamine receptor (Homo sapiens, UniProt P14416); conditions: Compound concentration 10.0 uM
T2 sequence (P14416 whole entry): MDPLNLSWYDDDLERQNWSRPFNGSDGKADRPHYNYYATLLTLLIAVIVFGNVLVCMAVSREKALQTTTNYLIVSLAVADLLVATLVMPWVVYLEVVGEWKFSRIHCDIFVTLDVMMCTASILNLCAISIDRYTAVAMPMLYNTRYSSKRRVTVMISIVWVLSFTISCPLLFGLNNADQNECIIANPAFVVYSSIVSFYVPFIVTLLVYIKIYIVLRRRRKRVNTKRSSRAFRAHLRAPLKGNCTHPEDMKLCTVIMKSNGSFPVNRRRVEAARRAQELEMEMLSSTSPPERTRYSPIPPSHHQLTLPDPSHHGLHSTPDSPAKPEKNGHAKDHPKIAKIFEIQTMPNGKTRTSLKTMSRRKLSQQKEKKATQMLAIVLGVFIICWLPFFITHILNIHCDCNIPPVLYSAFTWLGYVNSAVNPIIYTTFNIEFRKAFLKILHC

[11] = biological target: 5-hydroxytryptamine receptor 5A (Homo sapiens) (UniProt P47898); conditions: Compound concentration 10.0 uM
Chain of 5-hydroxytryptamine receptor 5A (Homo sapiens) (P47898 whole entry): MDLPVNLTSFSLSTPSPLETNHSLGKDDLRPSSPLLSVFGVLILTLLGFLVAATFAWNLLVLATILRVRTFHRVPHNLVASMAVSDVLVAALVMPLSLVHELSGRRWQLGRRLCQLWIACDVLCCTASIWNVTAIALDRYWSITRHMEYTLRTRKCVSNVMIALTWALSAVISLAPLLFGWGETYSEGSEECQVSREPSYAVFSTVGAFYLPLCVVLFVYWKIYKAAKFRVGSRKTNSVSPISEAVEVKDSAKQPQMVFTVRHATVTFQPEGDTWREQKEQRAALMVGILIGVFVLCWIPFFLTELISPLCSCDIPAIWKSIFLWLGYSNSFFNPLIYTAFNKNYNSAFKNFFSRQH

[12] = biological target: Alpha-1B adrenergic receptor (Homo sapiens) (UniProt P35368); conditions: Compound concentration 10.0 uM
[13] = biological target: T1, Sigma intracellular receptor 2; conditions: Compound concentration 10.0 uM
[14] = biological target: Delta-type opioid receptor (Homo sapiens) (UniProt P41143); conditions: Compound concentration 10.0 uM
[15] = biological target: Kappa-type opioid receptor (Homo sapiens) (UniProt P41145); conditions: Compound concentration 10.0 uM
[16] = biological target: Muscarinic acetylcholine receptor M1 (Homo sapiens) (UniProt P11229); conditions: Compound concentration 10.0 uM
[17] = biological target: 5-hydroxytryptamine receptor 1A (Homo sapiens) (UniProt P08908); conditions: Compound concentration 10.0 uM
[18] = biological target: T3, Histamine H2 receptor (Homo sapiens, UniProt P25021); conditions: Compound concentration 10.0 uM
T3 sequence (P25021 whole entry): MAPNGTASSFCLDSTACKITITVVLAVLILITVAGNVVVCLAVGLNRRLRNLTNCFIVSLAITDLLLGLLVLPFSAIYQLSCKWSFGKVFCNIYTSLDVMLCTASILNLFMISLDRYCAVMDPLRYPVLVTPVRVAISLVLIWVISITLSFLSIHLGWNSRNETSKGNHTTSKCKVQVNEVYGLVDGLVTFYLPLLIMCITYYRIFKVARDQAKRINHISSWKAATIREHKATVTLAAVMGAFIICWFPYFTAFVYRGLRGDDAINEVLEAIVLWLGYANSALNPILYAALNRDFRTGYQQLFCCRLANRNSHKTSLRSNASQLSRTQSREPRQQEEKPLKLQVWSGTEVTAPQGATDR

[19] = biological target: T4, Sodium-dependent dopamine transporter (Homo sapiens, UniProt Q01959); conditions: Compound concentration 10.0 uM
T4 sequence (Q01959 whole entry): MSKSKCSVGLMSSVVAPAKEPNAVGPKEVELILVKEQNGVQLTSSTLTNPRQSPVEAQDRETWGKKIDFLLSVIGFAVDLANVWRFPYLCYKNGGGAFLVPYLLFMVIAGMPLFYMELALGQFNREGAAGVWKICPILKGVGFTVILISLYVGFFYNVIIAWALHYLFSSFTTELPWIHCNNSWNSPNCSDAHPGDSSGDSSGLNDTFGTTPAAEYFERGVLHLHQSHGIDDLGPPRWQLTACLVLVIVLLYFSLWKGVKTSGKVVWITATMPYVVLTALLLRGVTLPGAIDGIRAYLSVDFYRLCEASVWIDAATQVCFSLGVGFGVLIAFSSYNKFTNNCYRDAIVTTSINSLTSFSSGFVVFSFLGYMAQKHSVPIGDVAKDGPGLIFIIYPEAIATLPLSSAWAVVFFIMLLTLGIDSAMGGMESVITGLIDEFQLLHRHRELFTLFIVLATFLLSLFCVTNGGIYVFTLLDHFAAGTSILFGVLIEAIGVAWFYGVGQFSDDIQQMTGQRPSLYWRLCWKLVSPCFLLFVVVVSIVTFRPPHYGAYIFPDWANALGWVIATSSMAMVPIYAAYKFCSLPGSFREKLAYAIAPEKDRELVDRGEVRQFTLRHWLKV

[20] = biological target: T5, 5-hydroxytryptamine receptor 1D (Homo sapiens, UniProt P28221); conditions: Compound concentration 10.0 uM
T5 sequence (P28221 whole entry): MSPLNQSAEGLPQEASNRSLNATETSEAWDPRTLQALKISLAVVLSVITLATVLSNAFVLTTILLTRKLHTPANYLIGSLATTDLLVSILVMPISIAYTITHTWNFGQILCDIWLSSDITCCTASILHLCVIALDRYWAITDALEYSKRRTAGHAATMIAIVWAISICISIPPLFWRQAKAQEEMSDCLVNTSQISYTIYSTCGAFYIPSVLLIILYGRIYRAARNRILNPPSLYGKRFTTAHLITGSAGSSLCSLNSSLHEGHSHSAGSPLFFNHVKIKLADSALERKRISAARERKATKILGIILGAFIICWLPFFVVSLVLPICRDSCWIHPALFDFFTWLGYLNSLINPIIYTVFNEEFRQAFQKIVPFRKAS

[21] = biological target: 5-hydroxytryptamine receptor 7 (Homo sapiens) (UniProt P34969); conditions: Compound concentration 10.0 uM
[22] = biological target: Histamine H1 receptor (Homo sapiens) (UniProt P35367); conditions: Compound concentration 10.0 uM
[23] = biological target: T6, Sodium-dependent noradrenaline transporter (Homo sapiens, UniProt P23975); conditions: Compound concentration 10.0 uM
T6 sequence (P23975 whole entry): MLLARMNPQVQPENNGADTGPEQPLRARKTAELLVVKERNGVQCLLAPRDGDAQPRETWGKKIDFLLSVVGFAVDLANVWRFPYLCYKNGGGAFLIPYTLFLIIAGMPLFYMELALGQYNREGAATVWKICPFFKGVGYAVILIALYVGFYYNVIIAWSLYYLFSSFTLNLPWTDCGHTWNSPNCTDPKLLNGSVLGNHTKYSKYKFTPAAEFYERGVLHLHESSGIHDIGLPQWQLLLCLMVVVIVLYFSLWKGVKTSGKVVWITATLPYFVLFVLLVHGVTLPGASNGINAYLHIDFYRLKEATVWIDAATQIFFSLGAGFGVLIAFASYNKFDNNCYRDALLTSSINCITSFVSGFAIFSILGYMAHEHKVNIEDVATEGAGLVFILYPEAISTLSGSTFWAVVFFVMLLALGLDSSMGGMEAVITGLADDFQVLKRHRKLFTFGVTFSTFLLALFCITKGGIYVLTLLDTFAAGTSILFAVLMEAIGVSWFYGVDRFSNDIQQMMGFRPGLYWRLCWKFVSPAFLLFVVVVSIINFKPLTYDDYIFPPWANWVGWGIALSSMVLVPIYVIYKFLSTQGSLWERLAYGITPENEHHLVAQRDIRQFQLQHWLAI

[24] = biological target: Muscarinic acetylcholine receptor M3 (Homo sapiens) (UniProt P20309); conditions: Compound concentration 10.0 uM
[25] = biological target: T7, GABA-A receptor; anion channel (Rattus norvegicus) (UniProt O09028+P15431+P18506+P18508+P19969+P20236+P23574+P23576+P28471+P28473+P30191+P62813+P63079+P63138+Q91ZM7+Q9ES14); conditions: Compound concentration 10.0 uM
[26] = biological target: T3, Histamine H2 receptor; test: GPCRScan assay: inhibition of H2; parameters: radioligand conc. used [nm] 0.02 – 0.05, parental cells Stable HEK
[27] = biological target: Beta-1 adrenergic receptor (Homo sapiens) (UniProt P08588); conditions: Compound concentration 10.0 uM
[28] = biological target: D(1A) dopamine receptor (Homo sapiens) (UniProt P21728); conditions: Compound concentration 10.0 uM
[29] = biological target: 5-hydroxytryptamine receptor 1E (Homo sapiens) (UniProt P28566); conditions: Compound concentration 10.0 uM
[30] = biological target: 5-hydroxytryptamine receptor 2B (Homo sapiens) (UniProt P41595); conditions: Compound concentration 10.0 uM
[31] = biological target: T5, 5-hydroxytryptamine receptor 1D; test: GPCRScan assay: inhibition of 5-HT1D; parameters: radioligand conc. used [nm] 1.0 – 2.0, parental cells HEKT
[32] = biological target: T4, Sodium-dependent dopamine transporter; test: GPCRScan assay: inhibition of DAT; parameters: radioligand conc. used [nm] 3.6 – 16.0, parental cells stable HEK
[33] = biological target: D(1B) dopamine receptor (Homo sapiens) (UniProt P21918); conditions: Compound concentration 10.0 uM
Chain of D(1B) dopamine receptor (Homo sapiens) (P21918 whole entry): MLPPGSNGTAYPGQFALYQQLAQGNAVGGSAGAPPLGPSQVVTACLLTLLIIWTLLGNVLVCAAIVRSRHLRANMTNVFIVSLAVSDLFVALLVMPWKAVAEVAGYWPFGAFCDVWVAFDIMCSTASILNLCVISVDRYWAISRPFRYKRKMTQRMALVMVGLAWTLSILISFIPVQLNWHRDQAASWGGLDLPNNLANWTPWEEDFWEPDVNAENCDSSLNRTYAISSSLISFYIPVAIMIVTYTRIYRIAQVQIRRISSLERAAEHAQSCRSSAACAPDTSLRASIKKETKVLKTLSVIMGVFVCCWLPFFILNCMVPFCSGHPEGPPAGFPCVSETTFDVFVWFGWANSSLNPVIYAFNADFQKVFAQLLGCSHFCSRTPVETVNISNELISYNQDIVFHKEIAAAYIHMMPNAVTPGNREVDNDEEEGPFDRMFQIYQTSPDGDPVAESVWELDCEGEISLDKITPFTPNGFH

[34] = biological target: D(3) dopamine receptor (Homo sapiens) (UniProt P35462); conditions: Compound concentration 10.0 uM
[35] = biological target: T8, Sigma non-opioid intracellular receptor 1 (Homo sapiens, UniProt Q99720); conditions: Compound concentration 10.0 uM
T8 sequence (Q99720 whole entry): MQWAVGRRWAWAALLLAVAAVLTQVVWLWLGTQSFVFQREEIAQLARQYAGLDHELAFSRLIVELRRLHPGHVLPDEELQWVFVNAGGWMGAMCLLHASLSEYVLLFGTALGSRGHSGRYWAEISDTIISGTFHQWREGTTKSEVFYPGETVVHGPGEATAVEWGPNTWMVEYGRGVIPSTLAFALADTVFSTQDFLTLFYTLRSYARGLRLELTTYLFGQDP

[36] = biological target: T6, Sodium-dependent noradrenaline transporter; test: GPCRScan assay: inhibition of NET; parameters: radioligand conc. used [nm] 1.3 – 5.0, parental cells stable HEK
[37] = biological target: Mu-type opioid receptor (Homo sapiens) (UniProt P35372); conditions: Compound concentration 10.0 uM
Chain of Mu-type opioid receptor (Homo sapiens) (P35372 whole entry): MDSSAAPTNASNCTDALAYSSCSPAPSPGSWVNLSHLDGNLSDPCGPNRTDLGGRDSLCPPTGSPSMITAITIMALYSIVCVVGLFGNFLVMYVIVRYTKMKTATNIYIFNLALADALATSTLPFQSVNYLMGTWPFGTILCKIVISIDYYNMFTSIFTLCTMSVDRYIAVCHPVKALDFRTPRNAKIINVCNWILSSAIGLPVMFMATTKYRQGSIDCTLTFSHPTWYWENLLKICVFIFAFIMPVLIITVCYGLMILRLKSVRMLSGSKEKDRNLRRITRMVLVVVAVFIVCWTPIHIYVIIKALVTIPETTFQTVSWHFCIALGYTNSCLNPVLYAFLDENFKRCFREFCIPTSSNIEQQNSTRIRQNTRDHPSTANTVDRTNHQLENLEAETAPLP

[38] = biological target: 5-hydroxytryptamine receptor 1B (Homo sapiens) (UniProt P28222); conditions: Compound concentration 10.0 uM
[39] = biological target: T9, Histamine H4 receptor (Homo sapiens, UniProt Q9H3N8); conditions: Compound concentration 10.0 uM
[40] = biological target: T8, Sigma non-opioid intracellular receptor 1; test: GPCRScan assay: inhibition of Sigma 1; parameters: radioligand conc. used [nm] 4.0 – 5.0, parental cells HEKT
[41] = biological target: 5-hydroxytryptamine receptor 3A (Homo sapiens) (UniProt P46098); conditions: Compound concentration 10.0 uM
[42] = biological target: Muscarinic acetylcholine receptor M4 (Homo sapiens) (UniProt P08173); conditions: Compound concentration 10.0 uM
[43] = biological target: Beta-3 adrenergic receptor (Homo sapiens) (UniProt P13945); conditions: Compound concentration 10.0 uM
Chain of Beta-3 adrenergic receptor (Homo sapiens) (P13945 whole entry, looked up): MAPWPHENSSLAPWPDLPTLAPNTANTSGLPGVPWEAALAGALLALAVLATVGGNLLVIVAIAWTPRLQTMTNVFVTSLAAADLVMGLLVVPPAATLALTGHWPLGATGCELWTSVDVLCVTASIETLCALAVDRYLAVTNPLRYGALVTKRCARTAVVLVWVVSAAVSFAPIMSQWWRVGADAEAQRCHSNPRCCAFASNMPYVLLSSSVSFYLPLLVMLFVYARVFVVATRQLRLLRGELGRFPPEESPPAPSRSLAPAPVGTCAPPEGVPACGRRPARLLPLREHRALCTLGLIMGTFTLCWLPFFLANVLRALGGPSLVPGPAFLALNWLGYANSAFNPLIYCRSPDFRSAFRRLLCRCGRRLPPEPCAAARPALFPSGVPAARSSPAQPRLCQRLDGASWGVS

[44] = species: Rattus norvegicus; conditions: Compound concentration 10.0 uM
[45] = biological target: T9, Histamine H4 receptor; test: GPCRScan assay: inhibition of H4; parameters: radioligand conc. used [nm] 1.0 – 5.0, parental cells HEK T
[46] = biological target: Alpha-1A adrenergic receptor (Homo sapiens) (UniProt P35348); conditions: Compound concentration 10.0 uM
[47] = biological target: T2, D(2) dopamine receptor; test: GPCRScan assay: inhibition of D2; parameters: radioligand conc. used [nm] 0.4 – 1.0, parental cells stable fibroblast
[48] = biological target: Peptidyl-prolyl cis-trans isomerase FKBP2 (Homo sapiens, UniProt P26885); test: Competitive fluorescence polarization binding assay (FKBP2)
[49] = biological target: Muscarinic acetylcholine receptor M2 (Homo sapiens) (UniProt P08172); conditions: Compound concentration 10.0 uM
[50] = biological target: 5-hydroxytryptamine receptor 6 (Homo sapiens) (UniProt P50406); conditions: Compound concentration 10.0 uM
[51] = biological target: 5-hydroxytryptamine receptor 2C (Homo sapiens, UniProt P28335); test: GPCRScan assay: inhibition of 5-HT2C; parameters: radioligand conc. used [nm] 1.0 – 2.5, parental cells HEK T
[52] = biological target: T7, GABA-A receptor; anion channel (Rattus norvegicus); conditions: Compound concentration 10.0 uM; remark: listed apart in the source
[53] = biological target: Peptidyl-prolyl cis-trans isomerase FKBP3 (Homo sapiens, UniProt Q00688); test: Competitive fluorescence polarization binding assay (FKBP3)
[54] = biological target: Beta-2 adrenergic receptor (Homo sapiens) (UniProt P07550); conditions: Compound concentration 10.0 uM
[55] = biological target: Peptidyl-prolyl cis-trans isomerase FKBP4 (Homo sapiens, UniProt Q02790); test: Competitive fluorescence polarization binding assay (FKBP4)
[56] = biological target: 5-hydroxytryptamine receptor 2C (Homo sapiens) (UniProt P28335); conditions: Compound concentration 10.0 uM

- inhibition [1]: 9.71%
- inhibition [2]: -1.68%
- inhibition [3]: -5.1%
- inhibition [4]: 25.2%
- inhibition [5]: 4.4%
- inhibition [6]: 10.2%
- inhibition [7]: 19.7%
- Ki [8]: 0.409 µM
- inhibition [9]: 26.6%
- inhibition [10]: 14.7%
- inhibition [11]: 6.87%
- inhibition [12]: -5.8%
- inhibition [13]: 98.4%
- inhibition [14]: 4.39%
- inhibition [15]: 5.75%
- inhibition [16]: 4.82%
- inhibition [17]: 12.2%
- inhibition [18]: 50.7%
- inhibition [19]: 68.4%
- inhibition [20]: 57%
- inhibition [21]: -3.87%
- inhibition [22]: 14.2%
- inhibition [23]: 52.4%
- inhibition [24]: -3.44%
- inhibition [25]: 20.6%
- Ki ([26]; read-out: Ki): 2.96 µM
- Ki ([26]; read-out: pKi (converted)): 2.69 µM
- inhibition [27]: -0.58%
- inhibition [28]: 19.1%
- inhibition [29]: 12.6%
- inhibition [30]: 19.4%
- Ki ([31]; read-out: Ki): 3.13 µM
- Ki ([31]; read-out: pKi (converted)): 3.09 µM
- Ki ([32]; read-out: Ki): 2.18 µM
- Ki ([32]; read-out: pKi (converted)): 2.19 µM
- inhibition [33]: 4.07%
- inhibition [34]: 28.1%
- inhibition [35]: 58.1%
- Ki [36]: > 10 µM
- pKi [36]: < 5
- inhibition [37]: 4.34%
- inhibition [38]: 30.2%
- inhibition [39]: 49.5%
- Ki [40]: 2.85 µM
- inhibition [41]: 0.13%
- inhibition [42]: 18%
- inhibition [43]: 35.1%
Compound: COc1ccc(CC[C@@H](OC(=O)[C@H]2CCCCN2C(=O)[C@@H](c2cc(OC)c(OC)c(OC)c2)C2CCCCC2)c2cccc(OCCN3CCOCC3)c2)cc1OC

- inhibition [1]: 8.1%
- inhibition [44]: 3.1%
- Ki [45]: 3.38 µM
- inhibition [2]: 20.5%
- inhibition [3]: 9.5%
- inhibition [46]: 6.7%
- inhibition [4]: 49.7%
- inhibition [5]: 21.9%
- inhibition [6]: 12.9%
- inhibition [7]: 7.6%
- Ki [8]: 0.226 µM
- inhibition [9]: 23.8%
- inhibition [10]: 50%
- inhibition [11]: 25.9%
- inhibition [12]: -1.1%
- inhibition [13]: 84.9%
- inhibition [14]: 13.4%
- inhibition [15]: 5.9%
- inhibition [16]: 7.5%
- inhibition [17]: -0.3%
- inhibition [18]: 30.3%
- inhibition [19]: 41%
- inhibition [20]: 15.5%
- Ki [47]: > 10 µM
- Kd [48]: 1.05 µM (not active)
- inhibition [21]: 3%
- inhibition [22]: 37.9%
- inhibition [23]: 36.9%
- inhibition [49]: 7%
- inhibition [24]: 0.4%
- inhibition [50]: 9.5%
- inhibition [25]: -9.9%
- inhibition [27]: -6.5%
- inhibition [28]: 24.3%
- Ki [51]: > 10 µM
- inhibition [52]: 17.2%
- Kd [53]: > 10 µM (not active)
- inhibition [30]: 8.5%
- inhibition [54]: 14.5%
- Kd [55]: > 50 µM (not active)
- inhibition [33]: 9.2%
- inhibition [34]: 39.7%
- inhibition [35]: 49.4%
- inhibition [37]: 20.9%
- inhibition [38]: 0.6%
- inhibition [39]: 71.8%
- inhibition [41]: 7.6%
- inhibition [42]: 3.4%
- inhibition [43]: 37.1%
- inhibition [56]: 56.1%
Compound: COc1ccc(CC[C@@H](OC(=O)[C@@H]2CCCCN2C(=O)[C@H](c2cc(OC)c(OC)c(OC)c2)C2CCCCC2)c2cccc(OCCN3CCOCC3)c2)cc1OC
